Usually IC50 stands for the concentration needed to halve the response being measured.

Our source for the IC50 and inhibition in vivo values is ChEMBL document CHEMBL5150075 (J Med Chem, 2022).

Experiment [1] has as its system DU-145. The experiment is described as follows: Antiproliferative activity against human DU-145 cells assessed as inhibition of cell growth incubated for 72 hrs by MTT assay. Format: functional, cell-based. The conditions noted are these: DU-145, 72 h.
The subject of experiment [2] is MDA-MB-231. The experiment in a line: cells. Conditions: Homo sapiens, MDA-MB-231, 72 h.
In experiment [3] the test system is HGC-27. The experiment is described as follows: Antiproliferative activity against human HGC-27 cells assessed as inhibition of cell growth incubated for 72 hrs by MTT assay. The conditions noted are these: HGC-27, 72 h. Format: functional, cell-based.
The subject of experiment [4] is SW1990. The experiment is described as follows: Antiproliferative activity against human SW1990 cells assessed as inhibition of cell growth incubated for 72 hrs by MTT assay. Format: functional, cell-based. The conditions noted are these: SW1990, 72 h.
Experiment [5] relates to NCI-H1437. The experiment is described as follows: Antiproliferative activity against human NCI-H1437 cells assessed as inhibition of cell growth incubated for 72 hrs by MTT assay. Format: functional, cell-based. Conditions: NCI-H1437, 72 h. Background: Tetrazolium assays rely on reduction of a dye to a coloured formazan, in cell work by metabolically active cells.
The test system of experiment [6] is HCT-116. The experiment in a line: cells. The conditions noted are these: Homo sapiens, HCT-116, 72 h.
Description: Antiproliferative activity against human HCT-116 cells assessed as inhibition of cell growth incubated for 72 hrs by MTT assay
In experiment [7] the test system is HUVEC. The experiment in a line: Anti-angiogenesis activity against HUVEC cells assessed as inhibition of cell growth incubated for 72 hrs by MTT assay. Format: functional, cell-based. Conditions: Homo sapiens.
Experiment [8] concerns BGC-823. The experiment is described as follows: Antiproliferative activity against human BGC-823 cells assessed as inhibition of cell growth incubated for 72 hrs by MTT assay. Format: functional, cell-based. Conditions: BGC-823, 72 h.
Experiment [9] relates to MCF7R. The experiment in a line: Antiproliferative activity against paclitaxel-resistant human MCF7R cells assessed as inhibition of cell growth incubated for 72 hrs by MTT assay. Format: functional, cell-based.
The subject of experiment [10] is NCI-H1299. The experiment is described as follows: Antiproliferative activity against human NCI-H1299 cells assessed as inhibition of cell growth incubated for 72 hrs by MTT assay. Format: functional, cell-based. Conditions: NCI-H1299, 72 h.
For experiment [11], the system named is B16-F10. The experiment in a line: Antiproliferative activity against mouse B16-F10 cells assessed as inhibition of cell growth incubated for 72 hrs by MTT assay. The conditions noted are these: B16-F10, 72 h. Format: functional, cell-based.
The subject of experiment [12] is NCI-H460. The experiment is described as follows: cells. Conditions: Homo sapiens, NCI-H460, 72 h.
Description: Antiproliferative activity against human NCI-H460 cells assessed as inhibition of cell growth incubated for 72 hrs by MTT assay
The subject of experiment [13] is HCT-8. The experiment in a line: Antiproliferative activity against human HCT-8 cells assessed as inhibition of cell growth incubated for 72 hrs by MTT assay. Format: functional, cell-based. The conditions noted are these: HCT-8, 72 h.
The test system of experiment [14] is A549. The experiment in a line: Antitumor activity against paclitaxel-resistant human A549 cells xenografted in BALB/c nude mouse assessed as tumor growth inhibition at 24 mg/kg, po administered once daily and measured twice a week relative to control. Format: functional. Conditions: read-out: TGI. (Xenograft models place foreign cells or tissue in a host animal.)

Experiment [15] deals with HepG2. The experiment in a line: cells. Conditions: Homo sapiens, HepG2, 72 h.
Experiment [16] relates to A549. The experiment in a line: Antiproliferative activity against paclitaxel-resistant human A549 cells assessed as inhibition of cell growth incubated for 72 hrs by MTT assay. Format: functional, cell-based. Conditions: A549, 72 h.
Experiment [17] has as its system MCF7. The experiment in a line: cells. The conditions noted are these: Homo sapiens, MCF7, 72 h.
Description: Antiproliferative activity against human MCF7 cells assessed as inhibition of cell growth incubated for 72 hrs by MTT assay
For experiment [18], the system named is A549. The experiment is described as follows: cells. Conditions: Homo sapiens, A549, 72 h.

Molecules are shown by their SMILES.

On to `CCOc1ccc(S(=O)(=O)Nc2cc(C(=O)NCc3cccnc3)ccc2C)cc1`, for which the IC50 in [1] was 860 nM. On to `CCc1ccc(C(=O)NCc2cccnc2)cc1NS(=O)(=O)c1ccc(C)cc1`, for which the IC50 in [1] was 860 nM. `Cc1ccc(C(=O)NCc2cccnc2)cc1NS(=O)(=O)c1ccccc1`: in experiment [1], the IC50 is over 10000 nM. Consider `Cc1ccc(C(=O)NCc2cccnc2)cc1NS(=O)(=O)c1ccc(C(F)(F)F)cc1`, for which the IC50 in experiment [1] is 5300 nM. For `CC(=O)O[C@H]1C(=O)[C@@]2(C)[C@H]([C@H](OC(=O)c3ccccc3)[C@]3(O)C[C@H](OC(=O)[C@H](O)[C@@H](NC(=O)c4ccccc4)c4ccccc4)C(C)=C1C3(C)C)[C@]1(OC(C)=O)CO[C@@H]1C[C@@H]2O` [PACLITAXEL], the half-inhibitory concentration (IC50) in [2] was under 1 nM; in experiment [3] it was under 1 nM; in experiment [4] it was 10 nM; in experiment [5], under 1 nM; in [6] it was under 1 nM; in [7], 71 nM. Moreover, the IC50 was under 1 nM in experiment [8]; 190 nM in experiment [9]; 9 nM in experiment [10]; under 1 nM in [11]; under 1 nM in experiment [12]; 86 nM in [13]. In addition, the IC50 is under 1 nM in experiment [15], 390 nM in [16], under 1 nM in experiment [1] and under 1 nM in [17]. Also, the inhibition in vivo at 24 mg/kg in experiment [14] was 53.8%. For `Cc1ccc(S(=O)(=O)Nc2cc(C(=O)NCc3ccncc3)ccc2C)cc1`, the IC50 in experiment [1] stood at 1700 nM. `Cc1ccc(S(=O)(=O)Nc2cc(C)cc(C(=O)NCc3cccnc3)c2)cc1`: the IC50 in experiment [1] amounted to 340 nM. As for `Cc1ccc(S(=O)(=O)Nc2ccc(Cl)c(C(=O)NCc3cccnc3)c2)cc1`, the IC50 in experiment [1] was over 10000 nM. For the molecule `COc1ccc(S(=O)(=O)Nc2cc(C(=O)NCc3cccnc3)ccc2C)cc1`, in experiment [1], the IC50 was 180 nM. Same read-out and setting: for `Cc1ccc(S(=O)(=O)Nc2cc(C(=O)NCc3cccnc3)ccc2C)cc1` the value was 120 nM. For the molecule `Cc1ccc(S(=O)(=O)Nc2cc(C(=O)NCc3ccc(C(F)(F)F)nc3)ccc2C)cc1`, the IC50 in experiment [1] was 200 nM. Regarding `Cc1ccc(S(=O)(=O)Nc2cc(C(=O)NCc3ccccc3)ccc2C)cc1`, the IC50 in experiment [1] is over 10000 nM. `CCCc1ccc(S(=O)(=O)Nc2cc(C(=O)NCc3cccnc3)ccc2C)cc1`: in experiment [1], the IC50 amounted to 9700 nM. Consider `Cc1ccc(S(=O)(=O)Nc2cc(C(=O)NCc3ccc(Cl)nc3)ccc2C)cc1`, for which the IC50 in [1] is 65 nM. With `Cc1ccc(C(=O)NCc2cccnc2)cc1NS(=O)(=O)c1ccc2ccccc2c1`, the IC50 in experiment [1] is 1000 nM. With `Cc1ccc(S(=O)(=O)Nc2cc(F)cc(C(=O)NCc3cccnc3)c2)cc1`, the IC50 in [1] was 900 nM. For the molecule `Cc1ccc(S(=O)(=O)Nc2cc(C(=O)NCc3cccnc3)ccc2F)cc1`, the IC50 in [1] stood at 790 nM. On to `Cc1ccc(S(=O)(=O)Nc2ccc(F)c(C(=O)NCc3cccnc3)c2)cc1`, for which the IC50 in experiment [1] is over 10000 nM.

Turning to `Cc1ccc(S(=O)(=O)Nc2cc(C(=O)NC(C)c3cnccn3)ccc2C)cc1` (stereo not drawn), in experiment [1], the IC50 amounted to 510 nM.

For `CNC(=O)c1ccc(C)c(NS(=O)(=O)c2ccc(C)cc2)c1`, the IC50 in experiment [1] is over 10000 nM. Turning to `Cc1ccc(S(=O)(=O)Nc2cc(C(=O)NCc3cnccn3)ccc2C)cc1`, the IC50 in [1] was over 10000 nM. In the case of `Cc1ccc(S(=O)(=O)Nc2cc(C(=O)NCCc3cccnc3)ccc2C)cc1`, in experiment [1], the IC50 is over 10000 nM.

For `Cc1ccc(S(=O)(=O)Nc2cc(C(=O)NC3(c4cnccn4)CC3)ccc2C)cc1`, in experiment [1], the IC50 is 800 nM. In the case of `COc1ccc(NS(=O)(=O)c2ccc(C)cc2)cc1C(=O)NCc1cccnc1`, in experiment [1], the IC50 is over 10000 nM. Consider `CCc1ccc(S(=O)(=O)Nc2cc(C(=O)NCc3ccc(C)nc3)ccc2C)cc1`, for which the IC50 in experiment [1] amounted to 11 nM.

For the molecule `Cc1ccc(C(=O)NCc2cccnc2)cc1NS(=O)(=O)c1ccc2c(c1)OCCO2`, the IC50 in experiment [1] was 420 nM. In the case of `Cc1ccc(S(=O)(=O)Nc2cc(C(=O)NCc3cccnc3)ccc2C)cc1C`, the IC50 in experiment [1] worked out at 970 nM. As for `CCCCc1ccc(S(=O)(=O)Nc2cc(C(=O)NCc3cccnc3)ccc2C)cc1`, in experiment [1], the IC50 is over 10000 nM. Take `Cc1ccc(C(=O)NCc2cccnc2)cc1NS(=O)(=O)c1ccc(Cl)cc1`: the IC50 in [1] was determined as 930 nM. In the case of `COc1cc(NS(=O)(=O)c2ccc(C)cc2)cc(C(=O)NCc2cccnc2)c1`, in experiment [1], the IC50 was 6200 nM. `Cc1ccc(S(=O)(=O)Nc2cc(C(=O)Nc3cccnc3)ccc2C)cc1`: in [1], the IC50 is over 10000 nM. The same measure, in the same setting: to `Cc1ccc(S(=O)(=O)Nc2cc(C(=O)NCc3cccnc3)ccc2C(F)(F)F)cc1` belongs over 10000 nM; to `Cc1ccc(C(=O)NCc2cccnc2)cc1NS(=O)(=O)c1ccc2c(c1)CCC2`, 900 nM. With `COc1cc2c(c(OC)c1OC)-c1ccc(OC)c(=O)cc1[C@@H](NC(C)=O)CC2` [COLCHICINE], the IC50 turned out to be 23 nM in experiment [2]; 3 nM in experiment [3]; 10 nM in experiment [4]; 2 nM in experiment [5]; 3 nM in experiment [6]; 16 nM in [8]. Further, the IC50 in [18] is 30 nM; in experiment [10], 4 nM; in experiment [11], 3 nM; in experiment [12] it was 54 nM; in experiment [13] it was 22 nM; in experiment [15], 2 nM. Besides, the values for the IC50 in experiment [1] and in experiment [17] were 3 nM and 6 nM, respectively. For `Cc1ccc(CNC(=O)c2ccc(C)c(NS(=O)(=O)c3ccc(C4CC4)cc3)c2)cn1`, the IC50 in experiment [1] came out at 12 nM. As for `Cc1ccc(S(=O)(=O)Nc2ccc(C)c(C(=O)NCc3cccnc3)c2)cc1`, in experiment [1], the IC50 was 2000 nM. For `Cc1ccc(C(=O)NCc2cccnc2)cc1NS(=O)(=O)c1ccc(F)cc1`, the IC50 in experiment [1] stood at 3500 nM. Still for that read-out and setting: for `Cc1ccc(S(=O)(=O)Nc2cc(C(=O)NCc3ccccn3)ccc2C)cc1` the value was over 10000 nM; for `Cc1ccc(S(=O)(=O)Nc2cc(C(=O)NCc3cccnc3)ccc2C)c(C)c1`, 500 nM; for `Cc1ccc(S(=O)(=O)Nc2cc(C(=O)NCc3cccnc3)cc(C(F)(F)F)c2)cc1`, over 10000 nM. For `Cc1ccc(S(=O)(=O)Nc2cc(C#N)cc(C(=O)NCc3cccnc3)c2)cc1`, in [1], the IC50 is over 10000 nM. On the same count and under the same terms, to `Cc1ccc(S(=O)(=O)Nc2cc(C(=O)NCc3ccnnc3)ccc2C)cc1` belongs 1300 nM; to `Cc1ccc(C(=O)NCc2cccnc2)cc1NS(=O)(=O)c1ccc(OC(F)(F)F)cc1`, over 10000 nM; to `Cc1ccc(C(=O)NCc2cccnc2)cc1NS(=O)(=O)c1ccc2c(c1)CCO2`, 1200 nM.

For the molecule `Cc1ccc(S(=O)(=O)Nc2cc(Cl)cc(C(=O)NCc3cccnc3)c2)cc1`, the IC50 in experiment [1] was found to be 340 nM. In the case of `CCc1ccc(S(=O)(=O)Nc2cc(C(=O)NCc3cccnc3)ccc2C)cc1`, in experiment [1], the IC50 was 40 nM. Take `Cc1ccc(C(=O)NCc2cccnc2)cc1NS(=O)(=O)c1ccc(C#N)cc1`: in experiment [1], the IC50 was over 10000 nM. Consider `Cc1ccc(C(=O)NCc2cccnc2)cc1NS(=O)(=O)c1ccc(C(C)(C)C)cc1`, for which, in [1], the IC50 was over 10000 nM. Consider `COc1ccc(C(=O)NCc2cccnc2)cc1NS(=O)(=O)c1ccc(C)cc1`, for which the IC50 in experiment [1] worked out at 9500 nM. As for `Cc1ccc(C(=O)NCc2cccnc2)cc1NS(=O)(=O)c1ccc(C(C)C)cc1`, the IC50 in experiment [1] was found to be 1000 nM. On the same count and under the same terms, to `Cc1ccc(S(=O)(=O)Nc2cc(C(=O)NCc3cccnc3)ccc2Cl)cc1` belongs 800 nM; to `Cc1ccc(C(=O)NCc2cccnc2)cc1NS(=O)(=O)c1ccc(C2CC2)cc1`, 50 nM; to `Cc1ccc(C(=O)NCc2cccnc2)cc1NS(=O)(=O)c1ccc2c(c1)OCO2`, 610 nM. In the case of `Cc1ccc(S(=O)(=O)Nc2cccc(C(=O)NCc3cccnc3)c2)cc1`, the IC50 in [1] came out at 700 nM.
